Test results: patent US20230321133A1, “COMPOSITIONS AND METHODS FOR TREATING BACTERIAL INFECTIONS” (THE TRUSTEES OF DARTMOUTH COLLEGE, priority 2020, published 2023)
≈ marks a conversion by molar mass, not a printed value. Read-outs that look alike come from different tables or passages of the source.

Key:
[1] = test system: P. aeruginosa strain PA14 biofilm; experiment: Crystal violet biofilm plate assay, strain PA14; settings: for sub-inhibitory antibiotic concentration for biofilm formation: PA14, absence of EVs; for biofilm formation, antibiotics alone: PA14, aztreonam 0.1 μg/ml or carbenicillin 5 μg/ml, no EVs
Description: Studies were also conducted to examine the time course of EV inhibition of biofilm formation using the crystal violet plate assay. […] Studies were conducted to determine if EV increase the ability of 3-lactam antibiotics to inhibit planktonic growth and biofilm formation by P. aeruginosa using the crystal violet biofilm plate assay^64. The subthreshold concentration of ATM (0.1 μg/ml) and CAR (5 μg/ml) for biofilm formation by P. aeruginosa in the absence of EV was determined.

[2] = test system: clinical isolates of P. aeruginosa; experiment: Crystal violet biofilm plate assay, clinical isolates; settings: six clinical isolates, carbenicillin 20 μg/ml, absence of EVs
Description: It was also assessed whether EVs increase the ability of aztreonam to inhibit biofilm formation by clinical isolates of P. aeruginosa.

[3] = test system: planktonic P. aeruginosa strain PA14; experiment: Planktonic growth yield assays, MIC and NIC of aztreonam; format: cell-based, Pseudomonas aeruginosa; settings: for MIC: Pseudomonas aeruginosa, read-out: minimal inhibitory concentration (MIC)
[4] = test system: P. aeruginosa proteins; experiment: Unbiased proteomic (LC-MS/MS) analysis of P. aeruginosa exposed to EV; format: cell-based, Pseudomonas aeruginosa; settings: 0.1 μg/ml aztreonam
Description: EV targets MexGHI-OpmD, a multidrug efflux pump that contributes to resistance to fluoroquinolone antibiotics including ciprofloxacin. Hyper-expression of RND multidrug efflux pumps is frequent in clinical isolates of P. aeruginosa and contributes to the development of multi-drug resistance phenotypes in the clinical setting^17. To determine if EV containing let-7b target and reduce MexGHI-OpmD, an unbiased proteomic (LC-MS/MS) approach was used, as previously described 27.
Column 1-Genes involved in biofilm formation (PhzE1 and PhzE2 have been identified as targets of let-7b in preliminary experiments). Column 2-Percent change in protein abundance induced by EV, determined by LC-MS/MS. Column 3-IntaRNA targeting score for let-7b for each biofilm gene, indicating a highly energetically favorable interaction between let-7b and the target mRNA^51.
[…]. […] According to the comprehensive antibiotic resistance database (CARD)57, eight of the 15 aztreonam-induced proteins have homology to beta-lactam resistance proteins in other bacteria. […]. […] This prediction is consistent with our observed phenotype of EV inhibition of biofilm formation. […].

Compound | sub-inhibitory antibiotic concentration for biofilm formation [1] | biofilm formation, antibiotics alone [1] | biofilm formation [2] | planktonic growth ([3]; PA14, aztreonam 0.8 μg/ml alone compared to controls) | non-inhibitory concentration (NIC) ([3]; PA14, control (no EVs)) | non-inhibitory concentration (NIC) ([3]; PA14, with EVs) | MIC ([3]; PA14, PA14, control (no EVs)) | MIC ([3]; PA14, PA14, with EVs) | PA14_48790 and PA14_16020 abundance [4] | beta-lactamase AmpC abundance ([4]; 16 hours, p<0.05) | number of proteins significantly induced by at least 50% ([4]; p<0.05 and log 2 fold change>0.58, in addition to AmpC)
CC1(C)S[C@@H]2[C@H](NC(=O)C(C(=O)O)c3ccccc3)C(=O)N2[C@H]1C(=O)O (stereo partly shown) [carbenicillin] | 5 µg/mL | did not significantly alter | did not significantly reduce |  |  |  |  |  |  |  | 
C[C@H]1[C@H](NC(=O)/C(=N\OC(C)(C)C(=O)O)c2csc(N)n2)C(=O)N1S(=O)(=O)O [aztreonam] | 0.1 µg/mL | did not significantly alter |  | significantly reduced | 0.6 µg/mL | 0.1 µg/mL | 2 µg/mL (≈ 4.59 µM) | 0.8 µg/mL (≈ 1.84 µM) | significantly induced | significantly induced | 15
